Laboratory results reported in patent publication US10807951B2, “mTORC1 modulators” (THE REGENTS OF THE UNIVERSITY OF CALIFORNIA, priority 2017, dated 2020).

Columns and labels:
LAMTOR5 = LAMTOR5 (Homo sapiens, UniProt O43504); assay: Rhodamine labeling with alkyne probe on purified Lamtor-Rag complexes; type: binding; conditions: preliminary experiments
Text: (§1) FIGS. 8A-8B. (FIG. 8A) Structures of CC 2-11 and CC 1-44. CC 2-11 bears an alkyne group on a separate ring from the cysteine-reactive warhead. The presence of the alkyne group enables us to directly label the modified target protein (e.g. Lamtor5) with biotin or rhodamine groups, either in gels or in complex proteomes. […] Thus, CC 2-11 allows precise mapping of the target cysteines as well as accurate identification of the off-targets.
as §1, with “We also synthesized a” for “FIGS. 8A-8B. (FIG. 8A) Structures of”, “1-44 derivative, named” for “2-11 and”, “2-11, which” for “1-44. CC 2-11”, “warhead (FIG. 8A).” for “warhead.”, “will allow” for “allows”

[1] = in vivo; cited from earlier work

| Structure (SMILES) | direct rhodamine labeling of target protein by alkyne probe (LAMTOR5) | bioavailability [1] |
| --- | --- | --- |
| C#Cc1cc(COc2cccc3c2ccn3C(=O)C=C)cc(C(F)(F)F)c1 [CC 2-11] | enables rhodamine labeling of a 28 KDa band corresponding to Lamtor5 | – |
| CO[C@H]1C[C@@H]2CC[C@@H](C)[C@@](O)(O2)C(=O)C(=O)N2CCCC[C@H]2C(=O)O[C@H]([C@H](C)C[C@@H]2CC[C@@H](O)[C@H](OC)C2)CC(=O)[C@H](C)/C=C(\C)[C@@H](O)[C@@H](OC)C(=O)[C@H](C)C[C@H](C)/C=C/C=C/C=C/1C [rapamycin] | – | good |
